The text below walks through data of US12162878B2 (HINOVA PHARMACEUTICALS INC., priority 2018, dated 2024).

SMILES strings stand for the structures.

The subject of the assay is CWR22RV1 cells. Briefly: Inhibition of proliferation of CWR22RV1 cells (CCK-8). Type of assay: cell-based, human. The following applies: Homo sapiens, CWR22Rv1, 144 h, 6 days. The procedure: • CWR22RV1 cell line (Cell Bank of Chinese Academy of Sciences, TCHu100) • FBS (Gibco, Cat. No. 10099-141) • 0.01M PBS (Biosharp, Cat. No. 162262) • RIPM1640 (Hyclone, Cat. No. 308090.01) • Penicillin-Streptomycin (Hyclone, Cat. No. SV30010) • Cell counting kit-8 (Signalway Antibody, Cat. No. CP002) • DMSO (Sigma, Cat. No. D5879) • Centrifuge Tube, 15 ml (Excell Bio, Cat. No. CS015-0001) • Cell Culture Dish, (Excell Bio, Cat. No. CS016-0128) • 96-well cell culture cluster (Corning, Cat. No. 3599) • 2. Experimental method (1) Preparation of Buffer
1) CWR22RV1 cells were subcultured in cell culture medium, and the cells in good growth condition were seeded in a 96-well plate, 80 μL for each well, thus the number of cells per well was 1500, then the plate was cultured overnight in a 37° C., 5% CO2 cell incubator.
2) The drug was prepared with dimethyl sulfoxide (DMSO) as a 30 mM stock solution. Prior to use, the solution was diluted 3 times with DMSO, and then diluted with a 3-fold gradient to obtain 9 concentration gradients. Then, each concentration of the compound was further diluted 200 times with the culture solution (to ensure that DMSO concentration in the culture system was 0.1%), 2 repeat wells for each concentration. The diluted solution of each compound (20 μL) was added to the cell culture well (with a final concentration of 10 μM, 3.3 μM, 1.1 μM . . . ), and shaken gently for mixing. In addition, three negative control wells containing only cells and three blank control wells containing only culture medium (20 μL DMSO diluted 200 times with culture medium being added to six wells) were included.
(1) After culturing for 6 days, 10 μL CCK-8 was added to each well and cultured for additional 2.5 h in a 37° C., 5% CO2 cell incubator.
(2) The absorbance (OD value) at 450 nm was measured with a multifunctional microplate reader.
(3) The data was analyzed by the Dose-response-inhibition equation in the software GraphPad Prism6, and the IC50 value was obtained.
Take `[2H]C([2H])([2H])n1cc(-c2cc(NS(=O)(=O)CCCC)ccc2N2CC3(CCC3)C2)c2cc[nH]c2c1=O` [Compound 46, N-(3-(6-trideuteromethyl-7-oxo-6,7-dihydro-1H-pyrrolo[2,3-c]pyridin-4-yl)-4-(2-aza-spiro[3.3]heptan-2-yl)phenyl)butane-1-sulfonamide]: half-maximal inhibition (IC50) required 130 nM.

On to `[2H]C([2H])([2H])n1cc(-c2cc(NS(=O)(=O)CC)ccc2N2CC3(CCC3)C2)c2cc[nH]c2c1=O` [Compound 47, N-(3-(6-trideuteromethyl-7-oxo-6,7-dihydro-1H-pyrrolo[2,3-c]pyridin-4-yl)-4-(2-aza-spiro[3.3]heptan-2-yl)phenyl)ethanesulfonamide], for which the IC50 (in general, the concentration at which inhibition is half-maximal) was 50 nM.

Turning to `[2H]C([2H])([2H])n1cc(-c2cc(NS(C)(=O)=O)ccc2N2CC3(COC3)C2)c2cc[nH]c2c1=O` [Compound 48, N-(3-(6-trideuteromethyl-7-oxo-6,7-dihydro-1H-pyrrolo[2,3-c]pyridin-4-yl)-4-(2-oxa-6-aza-spiro[3.3]heptan-6-yl)phenyl)methanesulfonamide], the 50% inhibitory concentration (IC50) came to 400 nM.

`[2H]C([2H])([2H])n1cc(-c2cc(NS(=O)(=O)CC)ccc2N2CC3(COC3)C2)c2cc[nH]c2c1=O` [Compound 49, N-(3-(6-trideuteromethyl-7-oxo-6,7-dihydro-1H-pyrrolo[2,3-c]pyridin-4-yl)-4-(2-oxa-6-aza-spiro[3.3]heptan-6-yl)phenyl)ethanesulfonamide]: half-maximal inhibition (IC50) was put at 420 nM.

The compound `[2H]C([2H])([2H])n1cc(-c2cc(NS(=O)(=O)CCCC)ccc2N2CC3(COC3)C2)c2cc[nH]c2c1=O` [Compound 50, N-(3-(6-trideuteromethyl-7-oxo-6,7-dihydro-1H-pyrrolo[2,3-c]pyridin-4-yl)-4-(2-oxa-6-aza-spiro[3.3]heptan-6-yl)phenyl) butane-1-sulfonamide] yielded an IC50 of 510 nM.

`[2H]C([2H])([2H])n1cc(-c2cc(NS(=O)(=O)C3CC3)ccc2N2CC3(COC3)C2)c2cc[nH]c2c1=O` [Compound 51, N-(3-(6-trideuteromethyl-7-oxo-6,7-dihydro-1H-pyrrolo[2,3-c]pyridin-4-yl)-4-(2-oxa-6-aza-spiro[3.3]heptan-6-yl)phenyl) cyclopropanesulfonamide] displayed an IC50 of 490 nM.

`[2H]C([2H])([2H])n1cc(-c2cc(NS(=O)(=O)CC)ccc2N2CCC3(CC2)CC3C(=O)OCC)c2cc[nH]c2c1=O` (stereo not shown) [Compound 52] gave an IC50 of 520 nM.

`[2H]C([2H])([2H])n1cc(-c2cc(NS(=O)(=O)CC)ccc2N2CCC3(CC2)CC3C(=O)O)c2cc[nH]c2c1=O` (stereo not shown) [Compound 53, 6-(4-(ethylsulfonamide)-2-(6-trideuteromethyl-7-oxo-6,7-dihydro-1H-pyrrolo[2,3-c]pyridin-4-yl)phenyl)-6-aza-spiro[2.5]octan-1-carboxylic acid] yielded an IC50 of 550 nM.

`[2H]C([2H])([2H])n1cc(-c2cc(S(C)(=O)=O)ccc2N2CCC3(CC3)C2)c2cc[nH]c2c1=O` [Compound 54, 6-trideuteromethyl-4-(5(methylsulfonyl)-2-(5-aza-spiro[2.4]heptan-5-yl)phenyl)-1H-pyrrolo[2,3-c]pyridin-7(6H)-one] came in with an IC50 of 18 nM.

Take `[2H]C([2H])([2H])n1cc(-c2cc(S(C)(=O)=O)ccc2N2CCCC3(CC3)C2)c2cc[nH]c2c1=O` [Compound 57, 6-trideuteromethyl-4-(5(methylsulfonyl)-2-(5-aza-spiro[2.5]octan-5-yl)phenyl)-1H-pyrrolo[2,3-c]pyridin-7(6H)-one]: inhibition was half-maximal at 25 nM (IC50).

`[2H]C([2H])([2H])n1cc(-c2cc(S(=O)(=O)C3CC3)ccc2N2CCCC3(CC3)C2)c2cc[nH]c2c1=O` [Compound 58, 4-(5-(cyclopropylsulfonyl)-2-(5-aza-spiro[2.5]octan-5-yl)phenyl)-6-trideuteromethyl-1H-pyrrolo[2,3-c]pyridin-7(6H)-one] gave an IC50 of 50 nM.

Compound `[2H]C([2H])([2H])n1cc(-c2cc(S(=O)(=O)C3CC3)ccc2N2CC3(CCC3)C2)c2cc[nH]c2c1=O` [Compound 59, 4-(5-(cyclopropylsulfonyl)-2-(2-aza-spiro[3.3]heptan-2-yl)phenyl)-6-trideuteromethyl-1H-pyrrolo[2,3-c]pyridin-7(6H)-one] displayed an IC50 of 65 nM.

`[2H]C([2H])([2H])n1cc(-c2cc(S(C)(=O)=O)ccc2N2CC3(CCC3)C2)c2cc[nH]c2c1=O` [Compound 60, 6-trideuteromethyl-4-(5-(methylsulfonyl)-2-(2-aza-spiro[3.3]heptan-2-yl)phenyl)-1H-pyrrolo[2,3-c]pyridin-7(6H)-one]: 39 nM corresponded to half-maximal inhibition (IC50).

The compound `[2H]C([2H])([2H])n1cc(-c2cc(S(=O)(=O)C3COC3)ccc2N2CC3(CCC3)C2)c2cc[nH]c2c1=O` [Compound 61, 6-trideuteromethyl-4-(5-(oxetane-3-ylsulfonyl)-2-(2-aza-spiro [3.3]heptan-2-yl)phenyl)-1H-pyrrolo[2,3-c]pyridin-7(6H)-one] showed an IC50 of 105 nM.

For `[2H]C([2H])([2H])n1cc(-c2cc(S(=O)(=O)CCCC)ccc2N2CC3(CCC3)C2)c2cc[nH]c2c1=O` [Compound 62], the half-maximal inhibitory concentration (IC50) worked out at 130 nM.

`[2H]C([2H])([2H])n1cc(-c2cc(S(=O)(=O)CC)ccc2N2CC3(CCC3)C2)c2cc[nH]c2c1=O` [Compound 63, 4-(5-(ethylsulfonyl)-2-(2-aza-spiro[3.3]heptan-2-yl)phenyl)-6-trideuteromethyl-1H-pyrrolo[2,3-c]pyridin-7(6H)-one] gave an IC50 of 60 nM.

The compound `[2H]C([2H])([2H])n1cc(-c2cc(S(C)(=O)=O)ccc2N2CC3(COC3)C2)c2cc[nH]c2c1=O` [Compound 64, 6-trideuteromethyl-4-(5-(methylsulfonyl)-2-(2-oxa-6-aza-spiro[3.3]heptan-6-yl)phenyl)-1H-pyrrolo[2,3-c]pyridin-7(6H)-one] yielded an IC50 of 380 nM.

Compound `[2H]C([2H])([2H])n1cc(-c2cc(S(=O)(=O)CC)ccc2N2CC3(COC3)C2)c2cc[nH]c2c1=O` [Compound 65, 4-(5-(ethylsulfonyl)-2-(2-oxa-6-aza-spiro[3.3]heptan-6-yl)phenyl)-6-trideuteromethyl-1H-pyrrolo[2,3-c]pyridin-7(6H)-one] showed an IC50 of 410 nM.

In turn, `[2H]C([2H])([2H])n1cc(-c2cc(S(=O)(=O)CCCC)ccc2N2CC3(COC3)C2)c2cc[nH]c2c1=O` [Compound 66, 4-(5-(butylsulfonyl)-2-(2-oxa-6-aza-spiro[3.3]heptan-6-yl)phenyl)-6-trideuteromethyl-1H-pyrrolo[2,3-c]pyridin-7(6H)-one] showed an IC50 of 520 nM.

In turn, `[2H]C([2H])([2H])n1cc(-c2cc(S(=O)(=O)C3CC3)ccc2N2CC3(COC3)C2)c2cc[nH]c2c1=O` [Compound 67, 4-(5-(cyclopropylsulfonyl)-2-(2-oxa-6-aza-spiro[3.3]heptan-6-yl)phenyl)-6-trideuteromethyl-1H-pyrrolo[2,3-c]pyridin-7(6H)-one] returned an IC50 of 490 nM.

Turning to `[2H]C([2H])([2H])n1cc(-c2cc(S(C)(=O)=O)ccc2N2CCC3(CC2)CC3C(=O)OCC)c2cc[nH]c2c1=O` (stereo not shown) [Compound 68, ethyl 6-(2-(6-trideuteromethyl-7-oxo-6,7-dihydro-1H-pyrrolo [2,3-c]pyridin-4-yl)-4-(methylsulfonyl)phenyl)-6-aza-spiro[2.5]octan-1-carboxylate], it took 530 nM to reach half-maximal inhibition (IC50).

In the case of `[2H]C([2H])([2H])n1cc(-c2cc(S(C)(=O)=O)ccc2N2CCC3(CC2)CC3C(=O)O)c2cc[nH]c2c1=O` (stereo not shown) [Compound 69, 6-(2-(6-trideuteromethyl-7-oxo-6,7-dihydro-1H-pyrrolo[2,3-c]pyridin-4-yl)-4-(methylsulfonyl)phenyl)-6-aza-spiro[2.5]octan-1-carboxylic acid], the half-maximal inhibitory concentration (IC50) amounted to 570 nM.

The compound `CCCCS(=O)(=O)Nc1ccc(N2CCC3(CC2)CC3)c(-c2cn(C)c(=O)c3[nH]ccc23)c1` [Compound 70, N-(3-(6-methyl-7-oxo-6,7-dihydro-1H-pyrrolo[2,3-c]pyridin-4-yl)-4-(6-aza-spiro[2.5]octan-6-yl)phenyl)butyl-1-sulfonamide] had an IC50 of 130 nM.

Compound `Cn1cc(-c2cc(NS(C)(=O)=O)ccc2N2CCCC3(CC3)C2)c2cc[nH]c2c1=O` [Compound 71, N-(3-(6-methyl-7-oxo-6,7-dihydro-1H-pyrrolo[2,3-c]pyridin-4-yl)-4-(5-aza-spiro[2.5]octan-5-yl)phenyl)methylsulfonamide] registered a concentration for half-maximal inhibition (IC50) of 94 nM.

`Cn1cc(-c2cc(S(C)(=O)=O)ccc2N2CCC3(CC2)COC3)c2cc[nH]c2c1=O` [Compound 177, 6-methyl-4-(5-(methylsulfonyl)-2-(2-oxa-7-aza-spiro[3.5]nonan-7-yl)phenyl)-1H-pyrrolo[2,3-c]pyridin-7(6H)-one] displayed an IC50 of 17 nM.
